These are literature values, as cited in patent publication US20080260864A1, “Topical Compositions for the Treatment of Depilation-Induced Irritation or Prevention Thereof” (MEDIDERMIS LTD., priority 2005, published 2008).

In this data set the test system is skin / tissue.
Setting [1] is: Hawley's Condensed Chemical Dictionary.

As to `[Al+3].[Cl-].[Cl-].[Cl-]` [Anhydrous aluminium chloride, Aluminium chloride anhydrous], under setting [1], the irritancy to tissue entry is “powerful irritant” and the toxicity by ingestion entry is recorded as “moderately toxic”.

In the case of `S1SSSSSSS1` [Sulfur], the skin irritation result (The Merck Index) was “may cause skin irritation”. The “effect of repeated applications” value (UpToDate drug information) was “may cause contact dermatitis”.
